Tests used:
[1] = target: T1, human SGLT2 (Homo sapiens, UniProt P31639); assay: Inhibitory activity against methyl-α-D-glucopyranoside uptake of human SGLT2; type: cell-based; settings: SGLT2 inhibition; methyl-α-D-(U-14C)glucopyranoside uptake in CHO-K1 cells stably expressing human SGLT2, 45 minutes at 37° C.
T1 construct: expressed in transfected cells; host or cells: CHO-K1
T1 sequence (P31639 1-672): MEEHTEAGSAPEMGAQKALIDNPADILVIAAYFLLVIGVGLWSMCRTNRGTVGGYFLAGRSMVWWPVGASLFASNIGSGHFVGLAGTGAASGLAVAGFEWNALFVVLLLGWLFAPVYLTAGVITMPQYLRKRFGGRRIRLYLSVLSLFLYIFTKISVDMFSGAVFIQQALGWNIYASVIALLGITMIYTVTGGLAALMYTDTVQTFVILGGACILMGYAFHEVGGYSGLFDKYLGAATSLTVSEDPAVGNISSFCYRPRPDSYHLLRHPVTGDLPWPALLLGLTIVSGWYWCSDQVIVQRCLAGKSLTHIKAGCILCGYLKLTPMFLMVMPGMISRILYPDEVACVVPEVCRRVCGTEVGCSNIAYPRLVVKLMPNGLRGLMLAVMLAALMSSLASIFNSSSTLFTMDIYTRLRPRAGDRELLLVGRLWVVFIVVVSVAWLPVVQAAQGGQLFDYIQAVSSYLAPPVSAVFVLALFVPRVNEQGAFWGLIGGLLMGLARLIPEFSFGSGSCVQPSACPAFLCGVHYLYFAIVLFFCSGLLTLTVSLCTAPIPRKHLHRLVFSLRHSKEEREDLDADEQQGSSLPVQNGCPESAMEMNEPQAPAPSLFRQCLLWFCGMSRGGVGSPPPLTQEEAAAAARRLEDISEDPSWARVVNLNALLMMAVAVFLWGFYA
Text: Evaluation of Inhibitory Activity Against methyl-α-D-glucopyranoside uptake of human Na^+-glucose cotransporter (SGLT1 and SGLT2)
Human SGLT2 cDNA was amplified by PCR with a cDNA library derived from human kidney (Clontech) as a template, synthetic DNA primers and KOD+ DNA Polymerase. The amplified cDNA was inserted into pcRII-Topo vector by using a Topo TA Cloning Dual Promoter kit. E. coli competent cells (TPO10) were transformed with the plasmid vector, cultured in LB medium containing ampicillin (50 mg/L) to grow ampicillin-resistant clones. The plasmid vector containing human SGLT2 cDNA was purified from the clone in a standard manner. Human SGLT2 cDNA added restriction enzyme recognition sites (Xho I at 5′-end, Hind III at 3′-end) was amplified by PCR with the plasmid vector as a template, synthetic DNA primers containing an additional restriction enzyme recognition site and KOD+ DNA Polymerase. This amplified cDNA was digested with Xho I and Hind III, and ligated into expression vector pcDNA3.1(−) digested with Xho I and Hind III by using a Rapid DNA Ligation kit. E. coli competent cells (DH5α) were transformed with the ligated expression vector and grown in ampicillin-containing LB medium. Human SGLT2 expression vector was purified from the ampicillin-resistant clone in a standard manner.
The human SGLT1 expression vector or the human SGLT2 expression vector was digested with the restriction enzyme Pvu I and transfected into CHO-Kl cells with FuGENE (Roche Diagonostics). After the transfection, the cells were cultured at 37° C. in the presence of 5% CO2 for about 3 weeks in DMEM medium (Gibco) containing penicillin (50 U/mL, SIGMA), streptomycin (50 mg/L, SIGMA), geneticin (200 mg/L, Nacalai Tesque, Inc., Japan) and 20% fetal bovine serum to obtain geneticin-resistant clones. Among these clones, clones stably expressing human SGLT1 or human SGLT2 were selected by the evaluating the sodium-dependent uptake activity of sugar (methyl-α-D-glucopyranoside). […]

[2] = tested on: sugar transporters of the facilitated diffusion type; settings: aglycon of phloridzin; reported; cited from earlier work
[3] = intravenously administered to rats; Nonpatent Document 2; cited from earlier work

## CCc1ccc(Cc2ccc3c(c2)[C@]2(OC3)O[C@H](CO)[C@@H](O)[C@H](O)[C@H]2O)cc1 [Example 1, 1,1-Anhydro-1-C-[5-(4-ethylphenyl)methyl-2-(hydroxymethyl)phenyl]-β-D-glucopyranose]
[1]
  IC50: 4.2 nM

## OC[C@H]1O[C@]2(OCc3ccc(Cc4cc5ccccc5s4)cc32)[C@H](O)[C@@H](O)[C@@H]1O [Example 2, 1,1-Anhydro-1-C-[5-(2-benzothiophenyl)methyl-2-(hydroxymethyl)phenyl]-β-D-glucopyranose]
[1]
  IC50: 4 nM

## CC(C)c1ccc(Cc2ccc3c(c2)[C@]2(OC3)O[C@H](CO)[C@@H](O)[C@H](O)[C@H]2O)cc1 [Example 4, 1,1-Anhydro-1-C-[5-(4-isopropylphenyl)methyl-2-(hydroxymethyl)phenyl]-β-D-glucopyranose]
[1]
  IC50: 5 nM

## O=C(CCc1ccc(O)cc1)c1c(O)cc(O)cc1O [phloretin]
[2]
  inhibition of sugar transporters of the facilitated diffusion type: strongly inhibit
[3]
  adverse effect on intracerebral glucose levels: reducing intracerebral glucose levels

From patent US7767651B2, “Spiroketal derivatives and use thereof as diabetic medicine” (Chugai Seiyaku Kabushiki Kaisha, priority 2005, dated 2010)
